Experimental data from patent US9790210B2, “N-(monocyclic aryl),N'-pyrazolyl-urea, thiourea, guanidine and cyanoguanidine compounds as TrkA kinase inhibitors” (Array BioPharma Inc., priority 2012, dated 2017).

Legend:
Experiment in all cases: KinaseProfiler
Type in all cases: biochemical
Settings in all cases: 10 μM, ATP near Km
Pim-2 = target: T1, Pim-2 (Homo sapiens, UniProt Q9P1W9)
T1 construct: purchased Millipore, Inc. (KinaseProfiler service)
In short: (§1)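 The compound is tested once at 10 μM against each kinase, in duplicate, with ATP near Km. Activity remaining is given as percent of control, averaged.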

LOK = target: T2, LOK (Homo sapiens, UniProt O94804)
T2 construct: purchased Millipore, Inc. (KinaseProfiler service)
In short: as §1

MST2 = target: T3, MST2 (Homo sapiens, UniProt Q13188)
T3 construct: purchased Millipore, Inc. (KinaseProfiler service)
T3 sequence (Q13188 whole entry): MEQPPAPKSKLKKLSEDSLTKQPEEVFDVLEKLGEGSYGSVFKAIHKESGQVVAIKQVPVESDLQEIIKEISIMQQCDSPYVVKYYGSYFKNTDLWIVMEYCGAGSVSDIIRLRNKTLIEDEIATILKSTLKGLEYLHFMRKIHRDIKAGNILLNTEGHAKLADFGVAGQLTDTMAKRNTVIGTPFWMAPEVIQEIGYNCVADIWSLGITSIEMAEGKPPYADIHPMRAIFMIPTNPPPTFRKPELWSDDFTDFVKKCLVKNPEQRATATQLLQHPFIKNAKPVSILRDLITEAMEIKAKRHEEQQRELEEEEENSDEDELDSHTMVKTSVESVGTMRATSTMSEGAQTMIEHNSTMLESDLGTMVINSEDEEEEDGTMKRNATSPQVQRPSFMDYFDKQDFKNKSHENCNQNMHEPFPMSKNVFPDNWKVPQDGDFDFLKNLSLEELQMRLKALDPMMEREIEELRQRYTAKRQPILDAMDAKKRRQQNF
In short: as §1

AKT3 = target: T4, AKT3 (Homo sapiens, UniProt Q9Y243)
T4 construct: purchased Millipore (KinaseProfiler service)
In short: as §1

Txk = target: T5, Txk (Homo sapiens, UniProt P42681)
T5 construct: purchased Millipore, Inc. (KinaseProfiler service)
In short: as §1

CSK = target: T6, CSK (Homo sapiens, UniProt P41240)
T6 construct: purchased Millipore, Inc. (KinaseProfiler service)
In short: as §1

DAPK1 = target: T7, DAPK1 (Homo sapiens, UniProt P53355)
T7 construct: purchased Millipore, Inc. (KinaseProfiler service)
In short: as §1

ERK2 = target: T8, ERK2 (Homo sapiens, UniProt P28482)
T8 construct: purchased Millipore, Inc. (KinaseProfiler service)
In short: as §1

p70S6K = target: T9, p70S6K (Homo sapiens, UniProt P23443)
T9 construct: purchased Millipore, Inc. (KinaseProfiler service)
T9 sequence (P23443 whole entry): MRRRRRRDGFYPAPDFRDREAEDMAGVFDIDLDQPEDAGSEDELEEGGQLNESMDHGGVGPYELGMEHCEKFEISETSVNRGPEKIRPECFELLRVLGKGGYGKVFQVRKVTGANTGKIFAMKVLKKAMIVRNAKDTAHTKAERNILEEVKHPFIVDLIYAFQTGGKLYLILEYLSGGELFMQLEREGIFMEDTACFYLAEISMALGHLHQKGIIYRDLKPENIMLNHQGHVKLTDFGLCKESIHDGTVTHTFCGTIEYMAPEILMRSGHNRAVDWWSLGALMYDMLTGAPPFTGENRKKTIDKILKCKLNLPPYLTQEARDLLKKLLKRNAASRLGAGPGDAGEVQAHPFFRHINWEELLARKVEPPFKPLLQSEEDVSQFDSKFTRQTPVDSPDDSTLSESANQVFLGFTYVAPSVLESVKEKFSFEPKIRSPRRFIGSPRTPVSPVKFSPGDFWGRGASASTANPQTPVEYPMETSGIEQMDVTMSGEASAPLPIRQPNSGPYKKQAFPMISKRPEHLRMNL
In short: as §1

MAP3K5 = target: T10, MAP3K5 (Homo sapiens, UniProt Q99683)
T10 construct: purchased Millipore, Inc. (KinaseProfiler service)
In short: as §1

TAO1 = target: T11, TAO1 (Homo sapiens, UniProt Q7L7X3)
T11 construct: purchased Millipore, Inc. (KinaseProfiler service)
T11 sequence (Q7L7X3 whole entry): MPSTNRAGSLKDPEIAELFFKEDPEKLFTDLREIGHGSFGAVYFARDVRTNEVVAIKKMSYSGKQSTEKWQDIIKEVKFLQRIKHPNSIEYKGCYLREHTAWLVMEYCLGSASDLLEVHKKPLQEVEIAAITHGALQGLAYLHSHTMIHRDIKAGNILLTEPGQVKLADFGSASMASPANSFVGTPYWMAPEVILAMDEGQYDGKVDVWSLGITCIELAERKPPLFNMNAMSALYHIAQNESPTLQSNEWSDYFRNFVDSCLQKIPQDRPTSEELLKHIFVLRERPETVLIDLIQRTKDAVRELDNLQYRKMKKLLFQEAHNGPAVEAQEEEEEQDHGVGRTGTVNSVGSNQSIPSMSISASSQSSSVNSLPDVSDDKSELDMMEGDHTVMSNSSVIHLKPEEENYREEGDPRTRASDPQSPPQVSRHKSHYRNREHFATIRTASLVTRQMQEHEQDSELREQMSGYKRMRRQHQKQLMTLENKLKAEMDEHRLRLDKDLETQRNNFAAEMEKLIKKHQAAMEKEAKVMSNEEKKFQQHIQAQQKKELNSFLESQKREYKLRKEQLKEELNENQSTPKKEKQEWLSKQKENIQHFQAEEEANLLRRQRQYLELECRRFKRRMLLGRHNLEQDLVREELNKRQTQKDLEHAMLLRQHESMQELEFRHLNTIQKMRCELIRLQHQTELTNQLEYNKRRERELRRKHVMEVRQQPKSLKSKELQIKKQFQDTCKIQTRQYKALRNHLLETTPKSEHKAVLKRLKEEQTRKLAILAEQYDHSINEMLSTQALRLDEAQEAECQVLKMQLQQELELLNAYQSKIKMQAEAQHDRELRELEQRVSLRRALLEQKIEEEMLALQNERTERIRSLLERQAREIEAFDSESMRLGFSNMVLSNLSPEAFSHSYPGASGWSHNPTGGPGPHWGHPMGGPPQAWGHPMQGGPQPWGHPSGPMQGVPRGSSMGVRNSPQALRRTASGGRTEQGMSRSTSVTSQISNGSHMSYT
In short: as §1

MAPKAP-K2 = target: T12, MAPKAP-K2 (Homo sapiens, UniProt P49137)
T12 construct: purchased Millipore, Inc. (KinaseProfiler service)
T12 sequence (P49137 whole entry): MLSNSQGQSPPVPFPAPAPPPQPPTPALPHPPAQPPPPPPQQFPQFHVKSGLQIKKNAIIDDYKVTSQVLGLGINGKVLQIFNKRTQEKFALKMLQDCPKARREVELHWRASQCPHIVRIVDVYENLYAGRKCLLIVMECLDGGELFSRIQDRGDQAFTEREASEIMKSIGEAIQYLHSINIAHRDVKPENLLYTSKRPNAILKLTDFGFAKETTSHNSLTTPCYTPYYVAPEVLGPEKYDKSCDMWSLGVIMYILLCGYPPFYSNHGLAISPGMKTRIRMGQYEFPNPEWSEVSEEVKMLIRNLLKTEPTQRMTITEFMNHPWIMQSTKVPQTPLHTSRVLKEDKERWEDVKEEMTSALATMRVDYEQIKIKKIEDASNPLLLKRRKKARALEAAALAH
In short: as §1

CDK2/cyclinE = target: T13, CDK2/cyclinE (Homo sapiens, UniProt P24941)
T13 construct: purchased Millipore, Inc. (KinaseProfiler service)
In short: as §1

EGFR = target: T14, EGFR (Homo sapiens, UniProt P00533)
T14 construct: purchased Millipore, Inc. (KinaseProfiler service)
In short: as §1

MSK2 = target: T15, MSK2 (Homo sapiens, UniProt O75676)
T15 construct: purchased Millipore, Inc. (KinaseProfiler service)
In short: as §1

mTOR/FKBP12 = target: T16, mTOR/FKBP12 (Homo sapiens, UniProt P42345)
T16 construct: purchased Millipore, Inc. (KinaseProfiler service)
In short: as §1

DRAK1 = target: T17, DRAK1 (Homo sapiens, UniProt Q9UEE5)
T17 construct: purchased Millipore, Inc. (KinaseProfiler service)
In short: as §1

MICK4_m = target: T18, MICK4_m (Mus musculus, UniProt P47809)
T18 construct: purchased Millipore, Inc. (KinaseProfiler service)
In short: as §1

HIPK1 = target: T19, HIPK1 (Homo sapiens, UniProt Q86Z02)
T19 construct: purchased Millipore, Inc. (KinaseProfiler service)
T19 sequence (Q86Z02 whole entry): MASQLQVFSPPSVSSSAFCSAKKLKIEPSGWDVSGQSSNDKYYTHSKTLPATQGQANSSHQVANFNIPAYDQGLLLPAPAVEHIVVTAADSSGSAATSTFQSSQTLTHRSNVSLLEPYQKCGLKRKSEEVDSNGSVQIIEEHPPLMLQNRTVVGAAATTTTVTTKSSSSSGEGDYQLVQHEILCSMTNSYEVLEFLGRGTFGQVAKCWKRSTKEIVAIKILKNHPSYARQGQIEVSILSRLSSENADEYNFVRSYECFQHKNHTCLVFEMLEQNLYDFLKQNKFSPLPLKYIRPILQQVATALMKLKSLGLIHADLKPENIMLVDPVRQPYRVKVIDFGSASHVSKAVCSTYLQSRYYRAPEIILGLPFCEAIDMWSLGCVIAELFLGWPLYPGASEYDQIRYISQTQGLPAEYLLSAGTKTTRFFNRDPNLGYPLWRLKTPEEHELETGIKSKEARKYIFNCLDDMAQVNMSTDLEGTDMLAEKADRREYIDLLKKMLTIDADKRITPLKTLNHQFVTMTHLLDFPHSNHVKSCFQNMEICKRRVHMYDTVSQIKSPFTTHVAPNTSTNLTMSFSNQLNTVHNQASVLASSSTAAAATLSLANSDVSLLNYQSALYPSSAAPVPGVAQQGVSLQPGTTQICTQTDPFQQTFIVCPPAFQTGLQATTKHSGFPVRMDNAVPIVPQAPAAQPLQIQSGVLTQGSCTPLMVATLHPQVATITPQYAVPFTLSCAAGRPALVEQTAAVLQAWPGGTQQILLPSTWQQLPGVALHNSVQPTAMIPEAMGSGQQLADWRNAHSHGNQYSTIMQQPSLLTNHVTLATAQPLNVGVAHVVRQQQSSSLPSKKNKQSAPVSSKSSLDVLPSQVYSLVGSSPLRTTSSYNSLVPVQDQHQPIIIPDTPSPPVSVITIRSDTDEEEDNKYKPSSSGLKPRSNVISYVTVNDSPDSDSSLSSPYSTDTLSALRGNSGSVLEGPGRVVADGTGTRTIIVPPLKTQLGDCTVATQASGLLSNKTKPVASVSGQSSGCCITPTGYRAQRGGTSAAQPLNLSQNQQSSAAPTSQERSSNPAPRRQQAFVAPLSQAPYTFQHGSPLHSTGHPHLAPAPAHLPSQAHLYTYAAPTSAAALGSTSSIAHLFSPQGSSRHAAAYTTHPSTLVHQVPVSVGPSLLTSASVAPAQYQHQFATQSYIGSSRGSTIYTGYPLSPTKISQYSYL
In short: as §1

CDK5/p25 = target: T20, CDK5/p25 (Homo sapiens, UniProt Q00535)
T20 construct: purchased Millipore, Inc. (KinaseProfiler service)
In short: as §1

CHK2 = target: T21, CHK2 (Homo sapiens, UniProt O96017)
T21 construct: purchased Millipore, Inc. (KinaseProfiler service)
In short: as §1

MEK1 = target: T22, MEK1 (Homo sapiens, UniProt Q02750)
T22 construct: purchased Millipore, Inc. (KinaseProfiler service)
In short: as §1

HIPK2 = target: T23, HIPK2 (Homo sapiens, UniProt Q9H2X6)
T23 construct: purchased Millipore, Inc. (KinaseProfiler service)
In short: as §1

CAMK1d = target: T24, CAMK1d (Homo sapiens, UniProt Q8IU85)
T24 construct: purchased Millipore (KinaseProfiler service)
In short: as §1

ULK3 = target: T25, ULK3 (Homo sapiens, UniProt Q6PHR2)
T25 construct: purchased Millipore, Inc. (KinaseProfiler service)
In short: as §1

Plk3 = target: T26, Plk3 (Homo sapiens, UniProt Q9H4B4)
T26 construct: purchased Millipore, Inc. (KinaseProfiler service)
In short: as §1

CDK2/cyclinA = target: T27, CDK2/cyclinA (Homo sapiens, UniProt P24941)
T27 construct: purchased Millipore, Inc. (KinaseProfiler service)
In short: as §1

ARKS = target: T28, ARKS (Homo sapiens, UniProt O60285)
T28 construct: purchased Millipore (KinaseProfiler service)
In short: as §1

CDK7/cyclinH/MAT1 = target: T29, CDK7/cyclinH/MAT1 (Homo sapiens, UniProt P50613)
T29 construct: purchased Millipore, Inc. (KinaseProfiler service)
In short: as §1

CDK5/p35 = target: T30, CDK5/p35 (Homo sapiens, UniProt Q00535)
T30 construct: purchased Millipore, Inc. (KinaseProfiler service)
In short: as §1

DDR2 = target: T31, DDR2 (Homo sapiens, UniProt Q16832)
T31 construct: purchased Millipore, Inc. (KinaseProfiler service)
In short: as §1

EphA5 = target: T32, EphA5 (Homo sapiens, UniProt P54756)
T32 construct: purchased Millipore, Inc. (KinaseProfiler service)
In short: as §1

Pim-1 = target: T33, Pim-1 (Homo sapiens, UniProt P11309)
T33 construct: purchased Millipore, Inc. (KinaseProfiler service)
In short: as §1

Fyn = target: T34, Fyn (Homo sapiens, UniProt P06241)
T34 construct: purchased Millipore, Inc. (KinaseProfiler service)
In short: as §1

Ab12 = target: T35, Ab12 (Homo sapiens, UniProt P42684)
T35 construct: purchased Millipore (KinaseProfiler service)
In short: as §1

EphB4 = target: T36, EphB4 (Homo sapiens, UniProt P54760)
T36 construct: purchased Millipore, Inc. (KinaseProfiler service)
In short: as §1

Rse = target: T37, Rse (Homo sapiens, UniProt Q06418)
T37 construct: purchased Millipore, Inc. (KinaseProfiler service)
T37 sequence (Q06418 41-890): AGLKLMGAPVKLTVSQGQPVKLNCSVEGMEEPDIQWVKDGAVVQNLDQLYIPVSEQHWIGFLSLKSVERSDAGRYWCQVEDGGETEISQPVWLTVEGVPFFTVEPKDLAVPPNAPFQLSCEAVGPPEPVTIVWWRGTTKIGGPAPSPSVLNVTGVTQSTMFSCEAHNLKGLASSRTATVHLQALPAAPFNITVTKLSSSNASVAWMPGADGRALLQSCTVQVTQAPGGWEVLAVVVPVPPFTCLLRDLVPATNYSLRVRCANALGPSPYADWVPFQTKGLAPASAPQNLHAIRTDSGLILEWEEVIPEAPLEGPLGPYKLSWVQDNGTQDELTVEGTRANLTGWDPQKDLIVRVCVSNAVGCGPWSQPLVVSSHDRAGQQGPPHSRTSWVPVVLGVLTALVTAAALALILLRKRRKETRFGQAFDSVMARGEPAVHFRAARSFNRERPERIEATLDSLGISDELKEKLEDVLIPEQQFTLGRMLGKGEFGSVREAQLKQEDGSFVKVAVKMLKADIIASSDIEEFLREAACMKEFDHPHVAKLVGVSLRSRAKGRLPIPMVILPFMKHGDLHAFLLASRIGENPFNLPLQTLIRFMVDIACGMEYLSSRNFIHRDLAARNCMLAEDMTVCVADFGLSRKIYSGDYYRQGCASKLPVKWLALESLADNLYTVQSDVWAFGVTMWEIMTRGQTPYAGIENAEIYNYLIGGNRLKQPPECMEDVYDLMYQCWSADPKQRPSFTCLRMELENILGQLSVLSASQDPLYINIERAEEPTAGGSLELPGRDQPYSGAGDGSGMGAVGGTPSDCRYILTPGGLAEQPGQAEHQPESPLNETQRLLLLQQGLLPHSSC
In short: as §1

GRK6 = target: T38, GRK6 (Homo sapiens, UniProt P43250)
T38 construct: purchased Millipore, Inc. (KinaseProfiler service)
In short: as §1

SGK1 = target: T39, SGK1 (Homo sapiens, UniProt O00141)
T39 construct: purchased Millipore, Inc. (KinaseProfiler service)
In short: as §1

JNK3 = target: T40, JNK3 (Homo sapiens, UniProt P53779)
T40 construct: purchased Millipore, Inc. (KinaseProfiler service)
T40 sequence (P53779 whole entry): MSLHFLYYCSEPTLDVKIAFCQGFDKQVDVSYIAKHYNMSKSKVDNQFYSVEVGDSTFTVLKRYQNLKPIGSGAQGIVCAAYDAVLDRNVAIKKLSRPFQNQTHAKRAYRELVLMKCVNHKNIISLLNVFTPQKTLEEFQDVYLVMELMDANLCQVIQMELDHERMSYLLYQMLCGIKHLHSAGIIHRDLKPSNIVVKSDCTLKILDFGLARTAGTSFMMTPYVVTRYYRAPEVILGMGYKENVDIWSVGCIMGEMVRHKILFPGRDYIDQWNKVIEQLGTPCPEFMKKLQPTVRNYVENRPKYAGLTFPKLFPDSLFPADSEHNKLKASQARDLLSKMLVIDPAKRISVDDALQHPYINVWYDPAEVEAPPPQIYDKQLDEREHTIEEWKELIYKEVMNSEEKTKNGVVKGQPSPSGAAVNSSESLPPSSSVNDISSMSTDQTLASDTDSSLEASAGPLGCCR
In short: as §1

Avg POC (Pim-2): 142.5 POC
Avg POC (LOK): 135 POC
Avg POC (MST2): 101.5 POC
Avg POC (AKT3): 119.5 POC
Avg POC (Txk): 135.5 POC
Avg POC (CSK): 139 POC
Avg POC (DAPK1): 121.5 POC
Avg POC (ERK2): 108 POC
Avg POC (p70S6K): 130.5 POC
Avg POC (MAP3K5): 105 POC
Avg POC (TAO1): 113 POC
Avg POC (MAPKAP-K2): 129.5 POC
Avg POC (CDK2/cyclinE): 106.5 POC
Avg POC (EGFR): 103 POC
Avg POC (MSK2): 147 POC
Avg POC (mTOR/FKBP12): 97.5 POC
Avg POC (DRAK1): 135.5 POC
Avg POC (MICK4_m): 137.5 POC
Avg POC (HIPK1): 118 POC
Avg POC (CDK5/p25): 106 POC
Avg POC (CHK2): 130 POC
Avg POC (MEK1): 121.5 POC
Avg POC (HIPK2): 99.5 POC
Avg POC (CAMK1d): 103 POC
Avg POC (ULK3): 92.5 POC
Avg POC (Plk3): 109 POC
Avg POC (CDK2/cyclinA): 112.5 POC
Avg POC (ARKS): 97.5 POC
Avg POC (CDK7/cyclinH/MAT1): 106 POC
Avg POC (CDK5/p35): 110 POC
Avg POC (DDR2): 104.5 POC
Avg POC (EphA5): 115.5 POC
Avg POC (Pim-1): 108 POC
Avg POC (Fyn): 111.5 POC
Avg POC (Ab12): 108 POC
Avg POC (EphB4): 132.5 POC
Avg POC (Rse): 109 POC
Avg POC (GRK6): 103 POC
Avg POC (SGK1): 124 POC
Avg POC (JNK3): 104 POC
SMILES: COCCCc1cc(Cl)c(Cl)cc1NC(=O)Nc1c(C)c(-c2cnn(C)c2)nn1-c1ccccc1 [Example 15, 1-(4,5-dichloro-2-(3-methoxypropyl)phenyl)-3-(1′,4-dimethyl-1-phenyl-1H,1′H-[3,4′-bipyrazol]-5-yl)urea]
